{
  "source": "paper PMC2947513",
  "about": "“Identification of an Archaeal Presenilin-Like Intramembrane Protease” (PLoS ONE, 2010)",
  "biological_target": "T1, MCMJR1 (Methanoculleus marisnigri, UniProt A3CWV0)",
  "T1 construct": "gene Memar_1924; full-length; N-terminal His6-SUMO fusion cut off with ULP1; expressed in E. coli Rosetta (DE3) pLysS; detergent-purified; catalytic D162 and D220; eight predicted TMDs",
  "T1 sequence (A3CWV0 1-301)": "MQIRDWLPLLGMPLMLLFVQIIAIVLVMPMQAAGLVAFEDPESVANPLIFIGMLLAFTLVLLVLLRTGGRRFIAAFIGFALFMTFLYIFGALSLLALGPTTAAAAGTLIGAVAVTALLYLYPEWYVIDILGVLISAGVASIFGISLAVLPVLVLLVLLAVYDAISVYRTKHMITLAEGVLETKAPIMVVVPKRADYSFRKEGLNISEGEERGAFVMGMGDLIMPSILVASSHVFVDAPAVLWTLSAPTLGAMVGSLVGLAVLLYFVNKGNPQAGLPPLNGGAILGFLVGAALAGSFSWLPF",
  "experiment": "cleavage of Gurken-TMD (MBP chimera), anti-MBP western blot with densitometry",
  "type": "biochemical",
  "conditions": "transition-state analog; 0.8 µM enzyme, 2 h pre-incubation at 37 °C, 0.8 µM Gurken-TMD, 8 h; 31C at 10-100 µM; IC50 not given",
  "data": [
    {"smiles": "COC(=O)C(NC(=O)C(CC(C)C)NC(=O)N(Cc1ccccc1)CC(O)C(Cc1ccccc1)NC(=O)OC(C)(C)C)C(C)C", "note": "(stereo not shown) [31C]", "values": [
      {"measurement": "complete inhibition of activity", "value": "~ 100 µM"}
    ]}
  ]
}
